Laboratory results: patent US9267116B2, “Amino acid dehydrogenase, and process for producing L-amino acid, 2-oxo acid or D-amino acid” (KANEKA CORPORATION, priority 2008, dated 2016)

Legend:
[1] = tested on: Rhodococcus maris-derived phenylalanine dehydrogenase; conditions: cited from earlier work
amino acid dehydrogenase = assay: Substrate specificity of the purified amino acid dehydrogenase (reductive amination of 2-oxo acids); type: biochemical, Rhodococcus qingshengii strain KNK2108; conditions: activity for phenylpyruvic acid = 100%; 30° C., pH 9.0; naphthylpyruvic and indolepyruvic acid by HPLC of the product formed in 30 minutes
Protocol: In the embodiments, the amino acid dehydrogenase activity of the polypeptide can be measured, for example, based on the rate of decline in the absorbance at a wavelength of 340 nm when 1.2 mL of 0.5 M NH3/NH4Cl buffer (pH 9.0), 0.2 mL of 0.1 M sodium carbonate buffer (pH 9.0) containing 3 mM NADH coenzyme, and 0.1 mL of an appropriately diluted enzyme solution are added to 1.5 mL of 0.1 M sodium carbonate buffer (pH 9.0) containing 10 mM phenylpyruvic acid as substrate and a reaction is run for 1 minute at 30° C. In the embodiments, the amino acid dehydrogenase activity was measured using this method unless indicated otherwise.
The activity of the amino acid dehydrogenase was measured based on the rate of decline in the absorbance at a wavelength of 340 nm when 1.2 mL of 0.5 M NH3/NH4Cl buffer (pH 9.0), 0.2 mL of 0.1 M sodium carbonate buffer (pH 9.0) that contained 3 mM NADH coenzyme, and 0.1 mL of the appropriately diluted enzyme solution were added to 1.5 mL of 0.1 M sodium carbonate buffer (pH 9.0) that contained 10 mM phenylpyruvic acid substrate and a reaction was carried out for 1 minute at 30° C. 1 unit is defined here as the quantity of enzyme that consumed 1 μmol NADH in 1 minute. The protein was quantified by the Bradford method using BSA as the reference protein.
The substrate specificity of the purified amino acid dehydrogenase was investigated. The enzyme activity was measured by using each substrate in place of the phenylpyruvic acid substrate in the procedure previously described for measuring the enzyme activity. In the case of the enzyme activity for naphthylpyruvic acid, 100 μL of the appropriately diluted enzyme solution was added to 100 μL of 0.1 M sodium carbonate buffer (pH 9.0) that contained 1.0 mg naphthylpyruvic acid, 12.3 mg ammonium sulfate, and 6.1 mg NADH and the increment in the 2-naphthylalanine produced in 30 minutes at 30° C. was determined by quantitation by HPLC. The HPLC analysis was run using the following: column: COSMOSIL 5C18-ARII (4.6 mm×250 mm, Nacalai Tesque, Inc.), eluent: 10 mM potassium phosphate buffer (pH 2.0)/acetonitrile=5/1, flow rate: 1.0 mL/min, column temperature: 40° C., detection: 210 nm. Here, 1 unit is defined as the quantity of enzyme that produces 1 μmol 2-naphthylalanine in 1 minute. In the case of the enzyme activity for indolepyruvic acid, 100 μL of the appropriately diluted enzyme solution was added to 100 μL of 0.1 M sodium carbonate buffer (pH 9.0) that contained 2.0 mg indolepyruvic acid, 26.0 mg ammonium sulfate, and 7.6 mg NADH and the increment in the L-tryptophan produced in 30 minutes at 30° C. was determined by quantitation by HPLC. The HPLC analysis was run using the following: column: CROWNPAK CR—(4.6 mm×150 mm, Daicel Chemical Industries, Ltd.), eluent: aqueous HClO4 (pH 2.0), flow rate: 1.0 mL/min, column temperature: 30° C., detection: 210 nm. Here, 1 unit is defined as the quantity of enzyme that produces 1 μmol L-tryptophan in 1 minute.

[2] = target: Thermoactinomyces intermedius-derived phenylalanine dehydrogenase (Thermoactinomyces intermedius, UniProt P22823); conditions: cited from earlier work
Thermoactinomyces intermedius-derived phenylalanine dehydrogenase, sequence (P22823 whole entry): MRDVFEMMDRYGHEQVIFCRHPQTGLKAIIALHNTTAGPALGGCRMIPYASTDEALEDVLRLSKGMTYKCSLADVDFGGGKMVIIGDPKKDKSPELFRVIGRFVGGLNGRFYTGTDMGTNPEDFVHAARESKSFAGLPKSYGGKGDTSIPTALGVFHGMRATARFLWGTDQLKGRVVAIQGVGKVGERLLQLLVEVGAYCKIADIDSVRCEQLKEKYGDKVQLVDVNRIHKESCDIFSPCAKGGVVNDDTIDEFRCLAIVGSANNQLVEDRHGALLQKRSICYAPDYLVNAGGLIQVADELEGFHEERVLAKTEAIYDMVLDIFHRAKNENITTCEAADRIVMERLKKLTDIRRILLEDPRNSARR

[3] = target: Rhodococcus sp.-derived phenylalanine dehydrogenase (Rhodococcus sp, UniProt Q59771); conditions: cited from earlier work
Rhodococcus sp.-derived phenylalanine dehydrogenase, sequence (Q59771 whole entry): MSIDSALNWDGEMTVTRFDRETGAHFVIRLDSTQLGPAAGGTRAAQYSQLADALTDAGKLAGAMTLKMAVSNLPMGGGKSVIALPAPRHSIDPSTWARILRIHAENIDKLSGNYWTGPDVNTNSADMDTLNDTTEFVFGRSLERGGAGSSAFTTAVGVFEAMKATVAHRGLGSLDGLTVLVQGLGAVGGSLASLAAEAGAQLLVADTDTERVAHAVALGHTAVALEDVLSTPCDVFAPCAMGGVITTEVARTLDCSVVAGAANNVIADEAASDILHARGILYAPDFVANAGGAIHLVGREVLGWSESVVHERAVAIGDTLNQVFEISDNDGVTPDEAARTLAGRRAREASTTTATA

[4] = target: Bacillus sphaericus-derived phenylalanine dehydrogenase (Lysinibacillus sphaericus, UniProt P23307); conditions: cited from earlier work
Bacillus sphaericus-derived phenylalanine dehydrogenase, sequence (P23307 whole entry): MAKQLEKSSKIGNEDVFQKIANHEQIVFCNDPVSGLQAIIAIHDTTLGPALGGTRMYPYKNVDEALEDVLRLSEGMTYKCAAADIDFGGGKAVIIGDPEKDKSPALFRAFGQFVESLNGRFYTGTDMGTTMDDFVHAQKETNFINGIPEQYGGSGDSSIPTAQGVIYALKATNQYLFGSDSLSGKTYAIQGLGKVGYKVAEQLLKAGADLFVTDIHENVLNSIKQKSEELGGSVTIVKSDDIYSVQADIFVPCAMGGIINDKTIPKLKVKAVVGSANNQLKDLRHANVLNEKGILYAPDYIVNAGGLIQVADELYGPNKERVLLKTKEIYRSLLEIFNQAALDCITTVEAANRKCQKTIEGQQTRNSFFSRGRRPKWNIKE

[5] = tested on: Microbacterium sp.-derived phenylalanine dehydrogenase; conditions: cited from earlier work
[6] = target: T1, Sporosarcina ureae-derived phenylalanine dehydrogenase (Sporosarcina ureae, UniProt P97014); conditions: cited from earlier work
T1 sequence (P97014 1-379): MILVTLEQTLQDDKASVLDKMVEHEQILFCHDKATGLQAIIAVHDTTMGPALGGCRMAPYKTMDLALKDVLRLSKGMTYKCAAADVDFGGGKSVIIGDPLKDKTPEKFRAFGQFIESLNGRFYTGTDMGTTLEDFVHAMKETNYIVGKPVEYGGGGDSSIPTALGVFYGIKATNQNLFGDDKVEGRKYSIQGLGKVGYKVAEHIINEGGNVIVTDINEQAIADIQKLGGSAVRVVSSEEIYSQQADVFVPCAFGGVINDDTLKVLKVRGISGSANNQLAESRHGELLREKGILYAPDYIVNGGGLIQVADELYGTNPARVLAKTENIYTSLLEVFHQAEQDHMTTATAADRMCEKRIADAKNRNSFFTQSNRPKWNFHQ

Row | Molecule | Relative activity (%) (amino acid dehydrogenase) | enzymatic activity taking the enzymatic activity for phenylpyruvic acid to be 100 [4] | other results
1 | CSCCC(=O)C(=O)O [2-Oxo-4-(methylthio)butanoic acid] | 34.6% |  | enzymatic activity taking the enzymatic activity for phenylpyruvic acid to be 100 [1]: 9
2 | CC(C)CC(=O)C(=O)O [2-Oxo-4-methylvaleric acid] | 3.5% |  | 
3 | O=C(O)C(=O)Cc1ccc(O)cc1 [4-Hydroxyphenylpyruvic acid] | 96.3% |  | enzymatic activity taking the enzymatic activity for phenylpyruvic acid to be 100 [2]: 0; enzymatic activity taking the enzymatic activity for phenylpyruvic acid to be 100 [3]: 5
4 | O=C(O)C(=O)CCc1ccccc1 [Homophenylpyruvic acid] | 19.1% | 3.4 | enzymatic activity taking the enzymatic activity for phenylpyruvic acid to be 100 [5]: 0.1
5 | O=C(O)C(=O)Cc1c[nH]c2ccccc12 [Indolepyruvic acid] | 19.7% | 0.39 | enzymatic activity taking the enzymatic activity for phenylpyruvic acid to be 100 [1]: 5; enzymatic activity taking the enzymatic activity for phenylpyruvic acid to be 100 [3]: 3; enzymatic activity taking the enzymatic activity for phenylpyruvic acid to be 100 [6]: 0.73
6 | O=C(O)C(=O)Cc1ccccc1 [Phenylpyruvic acid] | 100.0% |  | 
7 | Naphthylpyruvic acid | 38.8% | 0.46 | 
